From patent US10155743B2, “Glutarimide derivatives, use thereof, pharmaceutical composition based thereon and methods for producing glutarimide derivatives” (OBSCHESTVO S OGRANICHENNOI OTVETSTVENNOSTIYU …, priority 2013, dated 2018)
Read-outs that look alike come from different tables or passages of the source.

System: human virus hRSV adapted to the growth in mouse lungs
Assay: animal or person
Type: in vivo
Details: for Body weight of the mice after infection with hRSV, Day 5 / Body weight of the mice after infection with hRSV, Day 7: 30 mg/kg orally once daily for 5 days from 24 h after infection, M ± SD, n = 6; for hRSV viral titer in mouse lungs, Day 5, lg / hRSV viral titer in mouse lungs, Day 7, lg: 30 mg/kg orally once daily for 5 days, 10% lung suspension titrated in Hep-2 cell culture, TCID; for log reduction at 30 mg/kg: human respiratory syncytial virus, po, 120 h
[1] = read-out: Suppression of the reproduction of hRSV virus in mouse lungs, Day 5, Δlg
[2] = read-out: Suppression of the reproduction of hRSV virus in mouse lungs, Day 7, Δlg

Row | Structure (SMILES) | Body weight of the mice after infection with hRSV, Day 5 | Body weight of the mice after infection with hRSV, Day 7 | hRSV viral titer in mouse lungs, Day 5, lg | hRSV viral titer in mouse lungs, Day 7, lg | log reduction at 30 mg/kg [1] | log reduction at 30 mg/kg [2]
1 | O=C1CCCC(=O)N1CCc1cnc[nH]1 [Compound 1, 1-(2-(1H-imidazol-4-yl)ethyl)piperidine-2,6-dione] | 16.43 ± 0.14 | 17.98 ± 0.26 | 2.88 ± 0.59 lg | 1.46 ± 0.17 lg | 1.73 ± 0.59 | 2.34 ± 0.17
2 | CC1(C)CC(=O)N(CCc2cnc[nH]2)C(=O)C1 [Compound 3] | 16.65 ± 0.28 | 17.32 ± 0.25 | 3.04 ± 0.42 lg | 1.46 ± 0.17 lg | 1.56 ± 0.42 | 2.18 ± 0.28
3 | O=C1CCCC(=O)N1CCC1CCCN1 (stereo not shown) [Compound 4] | 16.77 ± 0.20 | 17.08 ± 0.32 | 2.58 ± 0.51 lg | 1.38 ± 0.24 lg | 2.02 ± 0.51 | 2.58 ± 0.53
4 | Cn1cnc(CCN2C(=O)CCCC2=O)c1 [Compound 5] | 16.02 ± 0.16 | 17.78 ± 0.26 | 2.17 ± 0.37 lg | 0.88 ± 0.31 lg | 2.43 ± 0.37 | 2.93 ± 0.31
5 | O=C1CCCC(=O)N1CCc1nccs1 [Compound 6] | 16.47 ± 0.26 | 17.02 ± 0.29 |  |  |  | 
6 | O=C1CCCC(=O)N1CCc1nc2ccccc2s1 [Compound 7, 1-[2-(1H-benzothiazol-2-yl)ethyl]piperidine-2-dione] | 17.17 ± 0.26 | 18.53 ± 0.55 |  |  |  | 
7 | O=C1CCCC(=O)N1CCc1ncc[nH]1 [Compound 8] | 15.18 ± 0.18 | 17.13 ± 0.27 |  |  |  | 
8 | O=C1CCCC(=O)N1CCc1ccncc1 [Compound 9] | 15.75 ± 0.33 | 16.18 ± 0.29 |  |  |  | 
9 | O=C1CCCC(=O)N1CCc1cccnc1 [Compound 10, 1-[2-(1H-pyridyl-3-yl)ethyl]piperidine-2,6-dione] | 16.18 ± 0.29 | 16.53 ± 0.20 |  |  |  | 
10 | O=C1CCCC(=O)N1CCN1CCOCC1 [Compound 117] | 16.07 ± 0.12 | 16.48 ± 0.28 | 3.00 ± 0.41 lg | 1.46 ± 0.24 lg | 1.6 ± 0.41 | 2.22 ± 0.34
11 | O=C1CCCC(=O)N1CCC1CCNC1 (stereo not shown) [Compound 120] | 16.12 ± 0.27 | 17.22 ± 0.20 | 3.04 ± 0.47 lg | 1.50 ± 0.25 lg | 1.56 ± 0.47 | 2.05 ± 0.25
12 | O=C1CCCC(=O)N1CCC1CCCNC1 (stereo not shown) [Compound 121] | 16.35 ± 0.20 | 17.38 ± 0.29 | 3.08 ± 0.47 lg | 1.50 ± 0.14 lg | 1.52 ± 0.47 | 2.09 ± 0.22
13 | O=C1CCCC(=O)N1CCC1CCCCN1 (stereo not shown) [Compound 122] | 16.93 ± 0.32 | 16.37 ± 0.21 | 3.04 ± 0.44 lg | 1.75 ± 0.41 lg | 1.56 ± 0.44 | 1.88 ± 0.47
14 | O=C1CCCC(=O)N1CCC1CCNCC1 [Compound 123] | 15.87 ± 0.20 | 17.55 ± 0.53 | 2.50 ± 0.43 lg | 1.33 ± 0.19 lg | 2.1 ± 0.43 | 2.62 ± 0.5
15 | O=C1CCCC(=O)N1CCc1nc2ccccc2[nH]1 [Compound 124] | 16.43 ± 0.26 | 16.37 ± 0.43 | 2.46 ± 0.22 lg | 0.83 ± 0.37 lg | 2.14 ± 0.22 | 2.97 ± 0.37
